# Source: patent publication US8299022B2, “Analogs of ghrelin substituted at the N-terminal” (IPSEN Pharma S.A.S., priority 2006, dated 2012)
# Square brackets hold non-standard residues; d marks the D form. Peptide text beside a SMILES is read from it. * marks the point of attachment. Octanoyl = CCCCCCCC(=O)*; Aib = CC(C)(N)C(=O)O; Inp = O=C(O)C1CCNCC1
# Assay: Rat plasma ½ life (stability in plasma in a rat model)
# Type: in vitro ADME
# Experimental: A selection of the preferred embodiments listed above was analyzed to determine stability, i.e. ½ life in plasma in a rat model using techniques known to those skilled in the art.
row,Compound,Rat Plasma ½ life [h]
1,"CCCCCCCC(=O)OC[C@H](NC(=O)C(C)(C)NC(=O)C1CCNCC1)C(=O)N[C@@H](Cc1ccccc1)C(=O)N[C@@H](CC(C)C)C(=O)N[C@@H](CO)C(=O)N1CCC[C@H]1C(=O)N[C@@H](CCC(=O)O)C(=O)N[C@@H](Cc1c[nH]cn1)C(=O)N[C@@H](CCC(N)=O)C(=O)N[C@@H](CCCNC(=N)N)C(=O)N[C@H](C(=O)N[C@@H](CCC(N)=O)C(=O)N[C@@H](CCC(N)=O)C(=O)N[C@@H](CCCNC(=N)N)C(=O)N[C@@H](CCCCN)C(=O)N[C@@H](CCC(=O)O)C(=O)N[C@@H](CO)C(=O)N[C@@H](CCCCN)C(=O)N[C@@H](CCCCN)C(=O)N1CCC[C@H]1C(=O)N1CCC[C@H]1C(=O)N[C@@H](C)C(=O)N[C@@H](CCCCN)C(=O)N[C@@H](CC(C)C)C(=O)N[C@@H](CCC(N)=O)C(=O)N1CCC[C@H]1C(=O)N[C@@H](CCCNC(=N)N)C(N)=O)C(C)C [Example 6, (Inp^1, Aib^2)hGhrelin(1-28)-NH2]",1.4
2,"CCCCCCCC(=O)OC[C@H](NC(=O)[C@H](CO)NC(=O)C1CCNCC1)C(=O)N[C@@H](Cc1ccccc1)C(=O)N[C@@H](CC(C)C)C(=O)N[C@@H](CO)C(=O)N1CCC[C@H]1C(=O)N[C@@H](CCC(=O)O)C(=O)N[C@@H](Cc1c[nH]cn1)C(=O)N[C@@H](CCC(N)=O)C(=O)N[C@@H](CCCNC(=N)N)C(=O)N[C@H](C(=O)N[C@@H](CCC(N)=O)C(=O)N[C@@H](CCC(N)=O)C(=O)N[C@@H](CCCNC(=N)N)C(=O)N[C@@H](CCCCN)C(=O)N[C@@H](CCC(=O)O)C(=O)N[C@@H](CO)C(=O)N[C@@H](CCCCN)C(=O)N[C@@H](CCCCN)C(=O)N1CCC[C@H]1C(=O)N1CCC[C@H]1C(=O)N[C@@H](C)C(=O)N[C@@H](CCCCN)C(=O)N[C@@H](CC(C)C)C(=O)N[C@@H](CCC(N)=O)C(=O)N1CCC[C@H]1C(=O)N[C@@H](CCCNC(=N)N)C(N)=O)C(C)C [Example 5, (Inp^1)hGhrelin(1-28)-NH2]",6.2
3,"CCCCCCCC(=O)OC[C@H](NC(=O)[C@H](CO)NC(=O)C1CCNCC1)C(=O)N[C@@H](Cc1ccccc1)C(=O)N[C@@H](CC(C)C)C(=O)N[C@@H](CO)C(=O)N1CCC[C@H]1C(=O)N[C@@H](CCC(=O)O)C(=O)N[C@@H](Cc1c[nH]cn1)C(=O)N[C@@H](CCC(N)=O)C(=O)N[C@@H](CCCNC(=N)N)C(=O)N[C@H](C(=O)N[C@@H](CCC(N)=O)C(=O)N[C@@H](CCC(N)=O)C(=O)N[C@@H](CCCNC(=N)N)C(=O)N[C@@H](CCCCN)C(=O)N[C@@H](COC(=O)CCCCCCC)C(=O)N[C@@H](CO)C(=O)N[C@@H](CCCCN)C(=O)N[C@@H](CCCCN)C(=O)N1CCC[C@H]1C(=O)N1CCC[C@H]1C(=O)N[C@@H](C)C(=O)N[C@@H](CCCCN)C(=O)N[C@@H](CC(C)C)C(=O)N[C@@H](CCC(N)=O)C(=O)N1CCC[C@H]1C(=O)N[C@@H](CCCNC(=N)N)C(N)=O)C(C)C [Example 11, (Inp^1, Ser(n-octanoyl)^17)hGhrelin(1-28)-NH2]",0.7
4,"CCCCCCCC(=O)OC[C@H](NC(=O)C(C)(C)NC(=O)C1CCNCC1)C(=O)N[C@@H](Cc1ccccc1)C(=O)N[C@@H](CC(C)C)C(=O)N[C@@H](CO)C(=O)N1CCC[C@H]1C(=O)NC(C)(C)C(=O)N[C@@H](Cc1c[nH]cn1)C(=O)N[C@@H](CCC(N)=O)C(=O)N[C@@H](CCCNC(=N)N)C(=O)N[C@H](C(=O)N[C@@H](CCC(N)=O)C(=O)N[C@@H](CCC(N)=O)C(=O)N[C@@H](CCCNC(=N)N)C(=O)N[C@@H](CCCCN)C(=O)N[C@@H](CCC(=O)O)C(=O)N[C@@H](CO)C(=O)N[C@@H](CCCCN)C(=O)N[C@@H](CCCCN)C(=O)N1CCC[C@H]1C(=O)N1CCC[C@H]1C(=O)N[C@@H](C)C(=O)N[C@@H](CCCCN)C(=O)N[C@@H](CC(C)C)C(=O)N[C@@H](CCC(N)=O)C(=O)N1CCC[C@H]1C(=O)N[C@@H](CCCNC(=N)N)C(N)=O)C(C)C [Example 9, (Inp^1, Aib^2, 8)hGhrelin(1-28)-NH2]",1.2
5,"CCCCCCNC(=O)CC[C@H](NC(=O)C(C)(C)NC(=O)C1CCNCC1)C(=O)N[C@@H](Cc1ccccc1)C(=O)N[C@@H](CC(C)C)C(=O)N[C@@H](CO)C(=O)N1CCC[C@H]1C(=O)N[C@@H](CCC(=O)O)C(=O)N[C@@H](Cc1c[nH]cn1)C(=O)N[C@@H](CCC(N)=O)C(=O)N[C@@H](CCCNC(=N)N)C(=O)N[C@H](C(=O)N[C@@H](CCC(N)=O)C(=O)N[C@@H](CCC(N)=O)C(=O)N[C@@H](CCCNC(=N)N)C(=O)N[C@@H](CCCCN)C(=O)N[C@@H](CCC(=O)O)C(=O)N[C@@H](CO)C(=O)N[C@@H](CCCCN)C(=O)N[C@@H](CCCCN)C(=O)N1CCC[C@H]1C(=O)N1CCC[C@H]1C(=O)N[C@@H](C)C(=O)N[C@@H](CCCCN)C(=O)N[C@@H](CC(C)C)C(=O)N[C@@H](CCC(N)=O)C(=O)N1CCC[C@H]1C(=O)N[C@@H](CCCNC(=N)N)C(N)=O)C(C)C [Example 7, (Inp^1, Aib^2, Glu(NH-hexyl)^3)hGhrelin(1-28)-NH2]",6.7

# More lines, now with the values ahead:
row,Rat Plasma ½ life [h],Compound
1,0.6,"CCCCCCCC(=O)OC[C@H](NC(=O)[C@H](CCCCN)NC(=O)[C@H](CCCNC(=N)N)NC(=O)[C@H](CCC(N)=O)NC(=O)[C@H](CCC(N)=O)NC(=O)[C@@H](NC(=O)[C@H](CCCNC(=N)N)NC(=O)[C@H](CCC(N)=O)NC(=O)[C@H](Cc1c[nH]cn1)NC(=O)[C@H](CCC(=O)O)NC(=O)[C@@H]1CCCN1C(=O)[C@H](CO)NC(=O)[C@H](CC(C)C)NC(=O)[C@H](Cc1ccccc1)NC(=O)[C@H](COC(=O)CCCCCCC)NC(=O)C(C)(C)NC(=O)C1CCNCC1)C(C)C)C(=O)N[C@@H](CO)C(=O)N[C@@H](CCCCN)C(=O)N[C@@H](CCCCN)C(=O)N1CCC[C@H]1C(=O)N1CCC[C@H]1C(=O)N[C@@H](C)C(=O)N[C@@H](CCCCN)C(=O)N[C@@H](CC(C)C)C(=O)N[C@@H](CCC(N)=O)C(=O)N1CCC[C@H]1C(=O)N[C@@H](CCCNC(=N)N)C(N)=O [Example 10, (Inp^1, Aib^2, Ser(n-octanoyl)^17)hGhrelin(1-28)-NH2]"
2,10.0,"CCCCCCNC(=O)CC[C@H](NC(=O)C(C)(C)NC(=O)C1(N)CCNCC1)C(=O)N[C@@H](Cc1ccccc1)C(=O)N[C@@H](CC(C)C)C(=O)N[C@@H](CO)C(=O)N1CCC[C@H]1C(=O)N[C@@H](CCC(=O)O)C(=O)N[C@@H](Cc1c[nH]cn1)C(=O)NC(C)(C)C(=O)N[C@@H](CCCNC(=N)N)C(=O)N[C@H](C(=O)N[C@@H](CCC(N)=O)C(=O)N[C@@H](CCC(N)=O)C(=O)N[C@@H](CCCNC(=N)N)C(=O)N[C@@H](CCCCN)C(=O)N[C@@H](CCC(=O)O)C(=O)N[C@@H](CO)C(=O)N[C@@H](CCCCN)C(=O)N[C@@H](CCCCN)C(=O)N1CCC[C@H]1C(=O)N1CCC[C@H]1C(=O)N[C@@H](C)C(=O)N[C@@H](CCCCN)C(=O)N[C@@H](CC(C)C)C(=O)N[C@@H](CCC(N)=O)C(=O)N1CCC[C@H]1C(=O)N[C@@H](CCCNC(=N)N)C(N)=O)C(C)C [Example 4, (1-Apc^1, Aib^2, 10, Glu(NH-hexyl)^3)-hGhrelin(1-28)-NH2]"
3,0.7,"CCCCCCCC(=O)OC[C@H](NC(=O)[C@H](CCCCN)NC(=O)[C@H](CCCNC(=N)N)NC(=O)[C@H](CCC(N)=O)NC(=O)[C@H](CCC(N)=O)NC(=O)[C@@H](NC(=O)[C@H](CCCNC(=N)N)NC(=O)[C@H](CCC(N)=O)NC(=O)[C@H](Cc1c[nH]cn1)NC(=O)C(C)(C)NC(=O)[C@@H]1CCCN1C(=O)[C@H](CO)NC(=O)[C@H](CC(C)C)NC(=O)[C@H](Cc1ccccc1)NC(=O)[C@H](COC(=O)CCCCCCC)NC(=O)C(C)(C)NC(=O)C1CCNCC1)C(C)C)C(=O)N[C@@H](CO)C(=O)N[C@@H](CCCCN)C(=O)N[C@@H](CCCCN)C(=O)N1CCC[C@H]1C(=O)N1CCC[C@H]1C(=O)N[C@@H](C)C(=O)N[C@@H](CCCCN)C(=O)N[C@@H](CC(C)C)C(=O)N[C@@H](CCC(N)=O)C(=O)N1CCC[C@H]1C(=O)N[C@@H](CCCNC(=N)N)C(N)=O [Example 12, (Inp^1, Aib^2,8, Ser(n-octanoyl)^17)hGhrelin(1-28)-NH2] (H-[Inp][Aib]S(Octanoyl)FLSP[Aib]HQRVQQRKS(Octanoyl)SKKPPAKLQPR-NH2; N-terminus assumed)"
4,1.2,"CCCCCCCC(=O)OC[C@H](NC(=O)C(C)(C)NC(=O)C1CCNCC1)C(=O)N[C@@H](Cc1ccccc1)C(=O)N[C@@H](CC(C)C)C(=O)N[C@@H](CO)C(=O)N1CCC[C@H]1C(=O)N[C@@H](CCC(=O)O)C(=O)N[C@@H](Cc1c[nH]cn1)C(=O)NC(C)(C)C(=O)N[C@@H](CCCNC(=N)N)C(=O)N[C@H](C(=O)N[C@@H](CCC(N)=O)C(=O)N[C@@H](CCC(N)=O)C(=O)N[C@@H](CCCNC(=N)N)C(=O)N[C@@H](CCCCN)C(=O)N[C@@H](CCC(=O)O)C(=O)N[C@@H](CO)C(=O)N[C@@H](CCCCN)C(=O)N[C@@H](CCCCN)C(=O)N1CCC[C@H]1C(=O)N1CCC[C@H]1C(=O)N[C@@H](C)C(=O)N[C@@H](CCCCN)C(=O)N[C@@H](CC(C)C)C(=O)N[C@@H](CCC(N)=O)C(=O)N1CCC[C@H]1C(=O)N[C@@H](CCCNC(=N)N)C(N)=O)C(C)C [Example 8, (Inp^1, Aib^2, 10)hGhrelin(1-28)-NH2]"
